Data from the METLIN SMRT retention time set (Domingo-Almenara et al. 2019).

Assay: gradient 5% acetonitrile 3 min, to 50% in 2 min, to 85% in 15 min, held 3 min, 100 µL/min
Conditions: column: Zorbax Extend-C18 2.1 x 50 mm; eluents: water / acetonitrile, 0.1% formic acid
Method in brief: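 Over 3 months, pure standards in mixtures of ~100 molecules were run by HPLC coupled to a quadrupole time-of-flight mass spectrometer in positive and negative ionization mode. The column was a Zorbax Extend-C18 (2.1 × 50 mm, 1.8 μm) at 100 μL/min, eluted with water and acetonitrile each holding 0.1% formic acid, with 40 μL dead and 900 μL dwell volumes. Retention time was determined from adduct peaks chosen by software and checked manually.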

| Structure (SMILES) | RP-LC retention time |
| --- | --- |
| O=C(N[C@H]1C[C@@H]2C[C@H]1N(S(=O)(=O)c1ccc3c(c1)OCCO3)C2)c1cccs1 | 816 s |
| O=C(c1cccnc1)N1CCCn2nc(-c3ccc(Cl)cc3)cc2C1 | 739 s |
| CCn1cc(CC(=O)NC(C)C)c2cccnc21 | 595 s |
| CN(C)CCNCc1ccc(-c2cc(Cl)ccc2Cl)o1 | 578 s |
| Cc1ccc(CNC(=O)Cn2c(=O)cc(-c3nc(C4CC4)no3)c3ccccc32)cc1 | 950 s |
| Cn1nc(C(=O)OCc2cc(-c3ccc(Cl)cc3)on2)ccc1=O | 812 s |
| O=C(Cn1cccc1-c1nc(-c2ccc(F)cc2)no1)N1CCc2ccccc21 | 1140 s |
| COc1cc(NC(=O)C2CCN(S(=O)(=O)c3cn(C(C)C)cn3)CC2)cc(OC)c1OC | 707 s |
| Cc1cc(C)c(C)c(S(=O)(=O)N2CCC(OCc3noc(C4CCCO4)n3)CC2)c1C (stereo not drawn) | 1110 s |
| O=C(Cn1cccc1-c1nc(-c2ccccc2)cs1)NCCCN1CCCC1 | 601 s |
| Cc1ccc(CC(=O)NC2CCN(c3nnc4cccc(C)n34)CC2)cc1 | 680 s |
| Cn1nccc1-c1cccc(-c2noc(/C=C/c3ccccc3Cl)n2)c1 | 1290 s |
| CN1C(=O)c2cc(C(=O)NC3CCCCC3)nn2CC1(C)C(=O)NCc1ccc(F)cc1 (stereo not drawn) | 776 s |
| CCc1ccc(-c2nc(-c3ccc4c(c3)nnn4CCN3CCOCC3)no2)cc1 | 663 s |
| O=C(Cn1c(=O)oc2ccc(Cl)cc21)NC1CCCCC1 | 878 s |
| CCCNC(=O)C1CCN(c2ccc(SCC(=O)Nc3ccc4c(c3)OCO4)nn2)CC1 | 610 s |
| Cc1ccccc1Nc1c(-c2ccccc2O)nc2cccc(C)n12 | 676 s |
| Cc1nc(-c2csc(S(=O)(=O)N3CCCC(C(=O)Nc4ccc(F)cc4F)C3)c2)no1 (stereo not drawn) | 952 s |
| Cc1csc(-c2ccc(N3CCN(C(=O)c4cccc5[nH]ccc45)CC3)nc2)n1 | 756 s |
| CCOc1ccc(NC(=O)N2CC(=O)N(CC(=O)N3CCC(C(N)=O)CC3)c3ccccc32)cc1 | 660 s |
| Cc1ccc(C)c(NC(=O)CN2C(=O)C3CCCCN3c3ccc(S(=O)(=O)N(C)C)cc32)c1 (stereo not drawn) | 955 s |
| COc1ccc(OC)c(NC(=O)Cn2nc3c4ccc(Cl)cc4ncn3c2=O)c1 | 740 s |

| Structure (SMILES) | RP-LC retention time |
| --- | --- |
| CC(C)c1ccc(-n2ccnc(NC(=O)Nc3ccc(F)cc3)c2=O)cc1 | 1100 s |
| Cc1ccc(NC(=O)Nc2cccn3nc(C)nc23)cc1 | 803 s |
| CCn1c(=O)c2ccccc2n(Cc2nc(-c3ccc(OC)c(OC)c3)no2)c1=O | 920 s |
| CCOc1ccc(OCC)c(S(=O)(=O)Nc2ccc(-c3cn4ccc(C)nc4n3)cc2)c1 | 697 s |
| CC(C)Oc1cc2oc(=O)cc(-c3ccccc3)c2cc1CCC(=O)N1CCN(c2ccccn2)CC1 | 647 s |
| CN(C)c1cc(N2CCCC(NC(=O)Cc3ccccc3)C2)ncn1 (stereo not drawn) | 795 s |
| O=c1c(=O)n(-c2ccccc2)ccn1Cc1cccc(C(F)(F)F)c1 | 770 s |
| CCCCNC(=O)Cc1nnc(-c2ccc(C)cc2)o1 | 755 s |
| O=C(c1ccc2c(c1)OCO2)N1CCC(N2C[C@H]3C[C@H](C2)[C@H]2CCCC(=O)N2C3)CC1 | 561 s |
| CCC(=O)Nc1ccc(-n2cnc(C(=O)NCc3ccc(C)c(C)c3)c2)nc1 | 791 s |
| O=C(CSC1CCc2ccccc2NC1=O)Nc1ccc(F)c(Cl)c1 (stereo not drawn) | 873 s |
| CC1=C(C(=O)NCCCOC(C)C)C2(CCN(Cc3ccccc3)CC2)OC1=O | 644 s |
| O=C(NC1CCCC1)C1CCN(C(=O)c2cc(-c3ccncc3)n[nH]2)CC1 | 582 s |
| O=C(c1nc(Cn2cnc3ccccc3c2=O)no1)N1CCN(Cc2ccc3c(c2)OCO3)CC1 | 691 s |
| COc1cc(NC(=O)CSc2nccc(N3CCN(c4cc(C)ccc4C)CC3)n2)cc(OC)c1 | 673 s |
| Cc1c(CC(=O)N2CCN(c3cccc(Cl)c3)CC2)c2c(=O)n(C)c(=O)n(C)c2n1C | 790 s |
| CCOC(=O)c1c(S(=O)(=O)N2CC=C(c3ccccc3)CC2)n[nH]c1CC | 927 s |
| CCOCC(=O)N1CCC(Oc2nccnc2N(C)C)C1 (stereo not drawn) | 616 s |
| Cc1ccc(CNC(=O)CN2C(=O)C3CCCCN3c3ccc(C(=O)N4CCCC4)cc32)o1 (stereo not drawn) | 664 s |
| Cc1ccc2nc(Cl)cc(=O)n2c1 | 740 s |
| c1ccc(COCCc2noc(C3CCCN3)n2)cc1 (stereo not drawn) | 614 s |
| O=C(CCC1CCN(S(=O)(=O)c2ccccc2F)CC1)NC1CC1 | 752 s |

| Structure (SMILES) | RP-LC retention time |
| --- | --- |
| CCOC(=O)c1cnc(N2CCN(Cc3ccccc3)CC2)c2ccccc12 | 755 s |
| Cc1c(Cl)cccc1NC(=O)N1CCC(n2cnc3ccccc3c2=O)CC1 | 791 s |
| CCOC(=O)C(CC)Oc1cc(O)c2c(=O)cc(-c3ccccc3)oc2c1 (stereo not drawn) | 760 s |
| O=C(CCc1nc2cccnc2n1Cc1cccs1)NCCc1c[nH]c2ccccc12 | 752 s |
| Cc1cc(C)cc(-n2ccn(Cc3nc(-c4ccc(C(C)(C)C)cc4)no3)c(=O)c2=O)c1 | 1130 s |
| c1csc(-c2[nH]ncc2CN2CCN(c3cnn4cnnc4c3)CC2)c1 | 835 s |
| O=C(NCc1cccc(Br)c1)C1CCN(c2nnc(-c3ccccc3)o2)CC1 | 885 s |
| COCCNC(=O)CC1CCN(C(=O)c2[nH]c(C)c(C(=O)OC)c2C)CC1 | 614 s |
| Cc1cccc2cc3cccc(C)c3nc12 | 696 s |
| Cc1oc(-c2ccc(NC(=O)c3ccc4c(c3)OCO4)cc2)nc1Cn1cccn1 | 822 s |
| Cc1csc(-c2cc(S(=O)(=O)NCC3CCCO3)cn2CC(=O)N2CCCCC2)n1 (stereo not drawn) | 831 s |
| O=C(Nc1cnc(N2CCCCCC2)nc1)c1cnccn1 | 771 s |
| O=C(Nc1cccc(Br)c1)C1CCCN(c2ncc(-c3cccc(F)c3)cn2)C1 (stereo not drawn) | 1260 s |
| CCn1cc(-c2ccc(Cl)cc2)cc1C(=O)NCc1ccccn1 | 790 s |
| O=C(NCc1csc(C2CCCN(C(=O)c3ccc(F)cc3F)C2)n1)C1CCC1 (stereo not drawn) | 699 s |
| O=C(CCc1ccc2[nH]ccc2c1)N1CCN(c2ccc(F)cc2)CC1 | 865 s |
| COc1cccc(-n2c(=O)c(C(=O)NC3CCCC3)c(O)c3cccnc32)c1 | 1210 s |
| O=C(NC1CC1)c1ccc(OCC2CCCN2C(=O)c2c(F)cccc2F)cc1 (stereo not drawn) | 741 s |
| CCC(C)NC(=O)c1cnn(-c2ccc(-c3nc(C)no3)cn2)c1C (stereo not drawn) | 821 s |
| CCOC(=O)c1ccc(NS(=O)(=O)c2cc3n(c2)CCN(C)C3=O)cc1 | 702 s |
| CCC(C(=O)NC1CC1)n1nc(C)c2c(C)n(-c3ccc(C)cc3)nc2c1=O (stereo not drawn) | 802 s |
| Cc1nn(-c2ccc(-c3ccccc3)nn2)c(C)c1S(=O)(=O)N(C)Cc1ccccc1 | 1190 s |

| Structure (SMILES) | RP-LC retention time |
| --- | --- |
| Cc1c(Cl)cccc1NC(=O)N(C)CC1CCOCC1 | 750 s |
| O=S(=O)(c1cccc(Br)c1)N1CCc2nc(-c3ccccc3)ncc2C1 | 1130 s |
| O=C(NCCc1nc2cccnc2n1-c1ccccc1)c1ccoc1 | 646 s |
| O=C(CCSCc1ccccc1F)N1CCN(c2ccccn2)CC1 | 645 s |
| Cc1nnc(N2CCCC(C(=O)NCc3ccc(F)cc3)C2)c2nn(-c3ccc(Cl)cc3)c(C)c12 (stereo not drawn) | 771 s |
| O=C(c1nnc(-c2ccc(S(=O)(=O)N3CCOCC3)cc2)o1)N1CCc2ccccc2C1 | 917 s |
| CN(Cc1ccccc1)C(=O)C1CCN(S(=O)(=O)Cc2ccccc2)CC1 | 867 s |
| CCOC(=O)c1noc2ncnc(N3CCc4cc(OC)c(OC)cc4C3C)c12 (stereo not drawn) | 1000 s |
| COC(=O)C1=CN(c2ccc(F)cc2)c2cc(Br)ccc2S1(=O)=O | 963 s |
| CC12CC(NC(=O)N1c1cccc(C(=O)NCc3cccnc3)c1)c1cc(Br)ccc1O2 (stereo not drawn) | 642 s |
| Fc1ccc(OCc2nnc3sc(-c4cccc(F)c4)nn23)cc1 | 947 s |
| O=C(NC1CCCC1)C1CC(=O)N(CCc2c[nH]c3ccc(Cl)cc23)C1 (stereo not drawn) | 769 s |
| CCOc1nc2c(c(C)nn2-c2cccc(C)c2)c(C)c1CCC(=O)N1CCN(c2ccccn2)CC1 | 910 s |
| CCc1noc(NC(C)=O)c1-c1ccc(OC)c(S(=O)(=O)Nc2cc(Cl)ccc2C)c1 | 870 s |
| CCN1CCN(CCNC(=O)Cn2c(=O)n(-c3ccc(F)cc3)c3ncccc32)CC1 | 583 s |
| Cc1cccc(CNC(=O)C2CCN(c3nnc4c(Cl)cccn34)CC2)c1C | 757 s |
| CCn1cnc(S(=O)(=O)N2CCCC(C(=O)Nc3ccccc3)C2)c1 (stereo not drawn) | 726 s |
| O=C(c1cn(-c2cc(N3CCCCC3)ncn2)cn1)N1CCN(c2ncccn2)CC1 | 785 s |
| O=C(Cc1ccsc1)Nc1cccn2c(C3CCC3)nnc12 | 745 s |
| Cc1ccc(NS(=O)(=O)c2cc(-c3[nH]ncc3C(=O)N3CCCCC3)oc2C)cc1C | 821 s |
| CCc1ccc(Nc2nc(C(=O)NC)nc3ccccc23)cc1 | 708 s |
| Nc1nc(N2CCOCC2)ncc1C(=O)NCc1ccccc1F | 626 s |
